Biological target: T1, TXNRD1 (cytosolic thioredoxin reductase 1) (Rattus norvegicus, UniProt O89049)
T1 sequence (O89049 1-499): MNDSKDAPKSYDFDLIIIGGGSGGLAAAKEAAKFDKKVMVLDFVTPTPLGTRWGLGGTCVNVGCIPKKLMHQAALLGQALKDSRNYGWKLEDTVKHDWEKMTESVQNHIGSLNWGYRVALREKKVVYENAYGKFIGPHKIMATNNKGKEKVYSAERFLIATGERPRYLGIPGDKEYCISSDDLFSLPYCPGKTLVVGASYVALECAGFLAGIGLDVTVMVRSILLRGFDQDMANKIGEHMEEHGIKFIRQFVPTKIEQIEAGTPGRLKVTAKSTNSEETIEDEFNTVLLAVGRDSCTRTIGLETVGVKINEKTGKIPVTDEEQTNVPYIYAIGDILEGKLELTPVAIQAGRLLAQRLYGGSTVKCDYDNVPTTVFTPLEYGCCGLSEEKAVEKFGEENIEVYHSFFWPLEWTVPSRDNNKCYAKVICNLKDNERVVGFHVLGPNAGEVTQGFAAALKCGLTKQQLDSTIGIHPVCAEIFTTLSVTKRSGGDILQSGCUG
Assay: ITC
Type: binding

With C=C1C(=O)O[C@@H]2C[C@@]3(C)CCCC(=C)[C@@H]3C[C@H]12 [IAL, Isoalantolactone] as the molecule, how does the Kd read?
Its Kd is 83.9 nM.

From article PMC13104650 (Acta Pharmaceutica Sinica. B, 2025)
